In article PMC9861212 (Metabolites, 2022):
Read-outs that look alike come from different tables or passages of the source. Blank lines part the entries; values can stand above or below the compound they belong to.

Key:
[1] = Metabolite profile of SMZ in pigs (LC-v.ARC/MS-IT-TOF); format: in vivo; conditions: for Detection in feces: pig feces, 7 d after administration
Experimental: (§1) (0.1 Ci/g). […] Urine and feces samples were stored at −80 °C.
(§2) Each sample was centrifuged at 4 °C for 5 min at 4000 rpm/min. The supernatant was collected and 2 mol/L methanol-mixed acid (methanol: 0.5% perchloric acid, 8:1, v:v) was added. Then, the mixture was centrifugated at 10,000 r/min for 10 min, the supernatant was collected and dried with nitrogen at 45 °C. […] The mixture was subjected to Liquid Chromatography tandem on-line isotope detector/Time of Flight Mass Spectrometry (LC-ν.ARC/MS-IT-TOF) system analysis.
(§3) The mixture was prepared for LC-ν. ARC/MS-IT-TOF system analysis.
(§4) X is the percentage of the individual radioactive substances within the total radioactive residues. AUCM is the area under the curve of the individual radioactive substances in the specific samples. AUCT is the area under the curve of the total radioactive residues in the specific samples.

[2] = Tissue distribution and residue depletion in pigs
Experimental: (§5) Another 6 rats were administered physiological saline at the same dose and in exactly the same way as the other animals. The same as above, at each sampling time point, a non-administered animal was killed and a sample was taken to obtain a blank sample. The medication groups samples and blank samples were washed and their weight was recorded. Afterwards, all samples were homogenized and divided into two parts. One part was used to detect the total radioactivity, and the other part was used for SMZ and metabolite analysis.
(§6) The total radioactivity in the samples were measured by Packard Tricarb 2900 liquid scintillation analyzer (LSC). The pretreated 200 μL liquid sample (urine, blood, and bile) was taken and 10 mL of Ultima Gold scintillation fluid was added for total radioactivity detection by LSC. Then, 200 mg of solid samples (feces and tissues) were accurately weighed, and 2 mL of digestion solution were added and mixed well, then the samples were placed in a 55 °C water bath for 6 h, and cooled to room temperature for later use. Then, 0.1 mol/L disodium edetate (EDTA-2Na) and 30% H2O2 of 200 μL were added and mixed evenly. At room temperature, 10 mL Ultima Gold scintillation fluid was added, and radioactivity determination was performed after standing [21].
The feces and tissues (2 g) were extracted with 10 mL methanol and water (4:1, v:v). The mixture was vortexed and sonicated for 5 min and 10 min, respectively, and finally the samples were centrifugated at 8000 rpm/min for 10 min. The supernatants were transferred into a new centrifuge tube and the residues were further extracted with 10 mL methanol and water (4:1, v:v). The supernatants were combined and evaporated to dryness under a nitrogen stream at 45 °C. The residues were dissolved with 0.5 mL of mobile phase and vortexed mixed for 30 s. Then, 1 mL n-hexane was added to remove the lipid, the mixture was vortexed evenly mixed, centrifugated at 10,000 rpm/min for 10 min and the n-hexane layer was discarded. […] The SMZ and its metabolites in the prepared samples were determined by a ν. ARC radiation detector and a hybrid IT/TOF mass spectrometer connected to the HPLC system (Shimadzu Corp., Kyoto, Japan). The HPLC system was equipped with a solvent delivery pump (LC20AD), autosampler (SIL20AC), DGU20A3 degasser, photodiode array detector (SPDM20A), communication base module (CBM20A), and a column oven (CTO20AC). Separation was performed on a X Bridge C18 column (150 × 2.1 mm; 3.5 μm) using a gradient elution consisting of mobile phase A (0.1% formic acid in water) and mobile phase B (acetonitrile). […] Photo-diode array (PDA) detection was performed from 200 to 400 nm. The sample chamber in the autosampler was maintained at 4 °C, whereas the column was set at 25 °C. The total effluent from the detector was transferred directly to the hybrid IT-TOF mass spectrometer without splitting. Metabolites were isolated and identified using a Shimadzu high-performance liquid chromatography-mass spectrometry-ion trap-time-of-flight (LC-MS-IT-TOF) hybrid mass spectrometer equipped with an electrospray ionization (ESI) source and operated in the positive mode. The eluate from the chromatographic separation was divided into two portions. The portion for metabolic quantification was applied to a ν.ARC 2.0, and the rest was analyzed and identified by ion trap time-of-flight tandem mass spectrometry (IT-TOF-MS/MS). Radiochemical detection was performed using the ν.ARC 2.0 Radio-LC system Detector RS232 equipped with a 500 μL detector cell (AIM Research Co., Hockessin, DE, USA).

[3] = pigs, single i.m. 25 mg/kg b.w.
Experimental: (§7) Six Wistar rats (three females and three males), six chickens and four pigs were housed in clean metabolic cages. […] (0.1 Ci/g). The broiler chickens were given the same dose by oral gavage. According to the recommended guidelines, the urine and feces samples of these animals were collected at different time intervals. […] At the end of the experiment, all animals were anesthetized and sacrificed in accordance with euthanasia guidelines (AVMA, 2001). Urine and feces samples were stored at −80 °C.
as §6

[4] = Tissue distribution and residue depletion in chickens; conditions: for Concentration of the metabolites in kidney: oral gavage 25 mg/kg twice a day for 7 d, 3 d
Experimental: In addition, the animals in the blank group (pigs and chickens) and the animals in the treatment group were given physiological saline and 0.5% carboxymethyl cellulose aqueous solution in exactly the same dose and in exactly the same way. […] The same as above, at each sampling time point, a non-administered animal was killed and a sample was taken to obtain a blank sample. The medication groups samples and blank samples were washed and their weight was recorded. Afterwards, all samples were homogenized and divided into two parts. One part was used to detect the total radioactivity, and the other part was used for SMZ and metabolite analysis.
as §6
The feces and tissues (2 g) were extracted with 10 mL methanol and water (4:1, v:v). The mixture was vortexed and sonicated for 5 min and 10 min, respectively, and finally the samples were centrifugated at 8000 rpm/min for 10 min. The supernatants were transferred into a new centrifuge tube and the residues were further extracted with 10 mL methanol and water (4:1, v:v). The supernatants were combined and evaporated to dryness under a nitrogen stream at 45 °C. The residues were dissolved with 0.5 mL of mobile phase and vortexed mixed for 30 s. Then, 1 mL n-hexane was added to remove the lipid, the mixture was vortexed evenly mixed, centrifugated at 10,000 rpm/min for 10 min and the n-hexane layer was discarded. […] The SMZ and its metabolites in the prepared samples were determined by a ν. ARC radiation detector and a hybrid IT/TOF mass spectrometer connected to the HPLC system (Shimadzu Corp., Kyoto, Japan). The HPLC system was equipped with a solvent delivery pump (LC20AD), autosampler (SIL20AC), DGU20A3 degasser, photodiode array detector (SPDM20A), communication base module (CBM20A), and a column oven (CTO20AC). Separation was performed on a X Bridge C18 column (150 × 2.1 mm; 3.5 μm) using a gradient elution consisting of mobile phase A (0.1% formic acid in water) and mobile phase B (acetonitrile). […] Photo-diode array (PDA) detection was performed from 200 to 400 nm. The sample chamber in the autosampler was maintained at 4 °C, whereas the column was set at 25 °C. The total effluent from the detector was transferred directly to the hybrid IT-TOF mass spectrometer without splitting. Metabolites were isolated and identified using a Shimadzu high-performance liquid chromatography-mass spectrometry-ion trap-time-of-flight (LC-MS-IT-TOF) hybrid mass spectrometer equipped with an electrospray ionization (ESI) source and operated in the positive mode. The eluate from the chromatographic separation was divided into two portions.

[5] = Metabolite profile of SMZ in chickens (LC-v.ARC/MS-IT-TOF); format: in vivo; conditions: for Percentage of the individual metabolite compared with total concentration of SMZ-related compounds: within 12 h after dosing; for Share of the total radioactivity in feces: 0.5–1 d after administration
Experimental: as §1
as §2, with “The weight of each aliquot was 0.1% of the total fraction weight (0.25% for urine). Each” for “Each”
as §3, §4

[6] = cited from earlier work
[7] = Metabolite profile of SMZ in rats (LC-v.ARC/MS-IT-TOF); format: in vivo; conditions: rat urine; after i.m. injection
Experimental: as §1
as §2, with “The weight of each aliquot was 0.1% of the total fraction weight (0.25% for urine). Each” for “Each”
as §3, §4

[8] = tested on: TA100 strain of Salmonella typhimurium; conditions: cited from earlier work
[9] = chickens, single oral gavage 25 mg/kg b.w.
Experimental: as §7, §6

[10] = Tissue distribution and residue depletion in rats; conditions: single i.m. dose
Experimental: as §5
The total radioactivity in the samples were measured by Packard Tricarb 2900 liquid scintillation analyzer (LSC). The pretreated 200 μL liquid sample (urine, blood, and bile) was taken and 10 mL of Ultima Gold scintillation fluid was added for total radioactivity detection by LSC. […] At room temperature, 10 mL Ultima Gold scintillation fluid was added, and radioactivity determination was performed after standing [21].
The feces and tissues (2 g) were extracted with 10 mL methanol and water (4:1, v:v). […] The SMZ and its metabolites in the prepared samples were determined by a ν. […] The portion for metabolic quantification was applied to a ν.ARC 2.0, and the rest was analyzed and identified by ion trap time-of-flight tandem mass spectrometry (IT-TOF-MS/MS). […]

[11] = female rats, single i.m. 25 mg/kg b.w., within 14 d
[12] = male rats, single i.m. 25 mg/kg b.w., within 14 d
[13] = pig, within 12 h after administration
[14] = chicken, 6 h after administration
[15] = female rats, single i.m. 25 mg/kg b.w., 0–0.5 d
[16] = female rats, single i.m. 25 mg/kg b.w., 0.5–1 d
[17] = female rats, single i.m. 25 mg/kg b.w., 1–3 d
[18] = female rats, single i.m. 25 mg/kg b.w., 3–7 d
[19] = female rats, single i.m. 25 mg/kg b.w., 7–14 d
[20] = male rats, single i.m. 25 mg/kg b.w., 0–0.5 d
[21] = male rats, single i.m. 25 mg/kg b.w., 0.5–1 d
[22] = male rats, single i.m. 25 mg/kg b.w., 1–3 d
[23] = male rats, single i.m. 25 mg/kg b.w., 3–7 d
[24] = male rats, single i.m. 25 mg/kg b.w., 7–14 d

Compound: Cc1cc(NS(=O)(=O)c2ccc(N)cc2)no1 [Compound S0, sulfamethoxazole]
Total recovery of radioactivity (urine + feces) [11]: 97%
Total recovery of radioactivity (urine + feces) [12]: 98%
Excreted through feces (rats (sexes together), single i.m. 25 mg/kg b.w., within 14 d): 21.4%
Detection in feces [1]: not detected
Share of the total residues in fat [2, 13]: 41.9%
Share of the total residues in kidney [2, 13]: 33.5%
Share of the total residues in liver [2, 13]: 34.4%
Share of the total residues in muscle [2, 13]: 55.9%
Recovery of total radioactivity in feces ([3]; 0–14 d): 14.7%

Compound: CC(=O)Nc1ccc(S(=O)(=O)Nc2cc(C)on2)cc1 [Compound S1, N4-acetyl-sulfamethoxazole]
Detection in feces [1]: detected
Share of the total residues in fat [2, 13]: 58.1%
Share of the total residues in kidney [2, 13]: 66.5%
Share of the total residues in muscle [2, 13]: 44.1%
Share of the residual amount in fat [4, 14]: 70.0%
Share of the residual amount in kidney [4, 14]: 1.0%
Share of the residual amount in liver [4, 14]: 71.7%
Share of the residual amount in muscle [4, 14]: 42.1%

Percentage of the individual metabolite compared with total concentration of SMZ-related compounds ([5]; chicken Extra (feces/excreta)): 9.6%
Percentage of the individual metabolite compared with total concentration of SMZ-related compounds ([5]; chicken bile): 2.5%
Percentage of the individual metabolite compared with total concentration of SMZ-related compounds ([5]; chicken plasma (blood)): 1.2%
Concentration of the metabolites in kidney ([4]; chicken): not detected
Compound: Nc1ccc(S(=O)(=O)Nc2cc(CO)on2)cc1 [Compound S2, 5-hydroxysulfamethoxazole]

Percentage of the individual metabolite compared with total concentration of SMZ-related compounds ([5]; chicken Extra (feces/excreta)): 4.4%
Percentage of the individual metabolite compared with total concentration of SMZ-related compounds ([5]; chicken bile): not detected
Share of the total radioactivity in feces ([5]; chicken feces): no longer detected
Percentage of the individual metabolite compared with total concentration of SMZ-related compounds ([5]; chicken plasma (blood)): 0.9%
Concentration of the metabolites in kidney ([4]; chicken): not detected
Compound: Cc1cc(NS(=O)(=O)c2ccc(NO)cc2)no1 [Compound S3, N4-hydroxyamino sulfamethoxazole]
Reactivity / direct cytotoxicity [6]: neither highly reactive nor directly cytotoxic

Share of the total radioactivity in feces ([5]; chicken feces): 2.06%
Concentration of the metabolites in kidney ([4]; chicken): not detected
Compound: Cc1cc(NS(=O)(=O)c2ccc(NS(=O)(=O)O)cc2)no1 [Compound S4, N4-sulfatesulfamethoxazole]

Detection in urine by LC/MS-IT-TOF ([1]; pig urine, 0–0.5 d): trace amounts
Detection in feces by LC-MS-IT-TOF ([5]; chicken feces, 12 h): trace amount
Detection in urine by LC-MS-IT-TOF [7]: trace amounts
Compound: Cc1cc(NS(=O)(=O)c2ccc(NC3OC(C(=O)O)C(O)C(O)C3O)cc2)no1 (stereo not drawn) [Compound S5, N4-glucuronidsulfamethoxazole]

Compound: CC(=O)ONc1ccc(S(=O)(=O)Nc2cc(C)on2)cc1 [N-acetoxy-SMZ]
Mutagenicity in the Ames test [8]: weak mutations
In vitro cytotoxicity relative to S3 [6]: more toxic than S3

Recovery of total radioactivity in feces [15]: 14.31 ± 1.73%
Recovery of total radioactivity in urine [15]: 45.38 ± 6.09%
Recovery of total radioactivity in feces (female rats, single i.m. 25 mg/kg b.w., 0–14 d): 19.58 ± 2.09%
Recovery of total radioactivity in feces [16]: 4.45 ± 1.87%
Recovery of total radioactivity in urine [16]: 19.41 ± 2.15%
Recovery of total radioactivity in feces [17]: 1.02 ± 0.72%
Recovery of total radioactivity in urine [17]: 10.09 ± 3.14%
Recovery of total radioactivity in feces [18]: 0.42 ± 0.28%
Recovery of total radioactivity in urine [18]: 3.97 ± 1.24%
Recovery of total radioactivity in feces [19]: 0.05 ± 0.03%
Recovery of total radioactivity in urine [19]: 0.38 ± 0.17%
Total recovery of radioactivity (urine + feces) [11]: 97.3 ± 1.16%
Recovery of total radioactivity in feces [20]: 17.3 ± 1.16%
Recovery of total radioactivity in urine [20]: 45.33 ± 4.79%
Recovery of total radioactivity in feces (male rats, single i.m. 25 mg/kg b.w., 0–14 d): 23.24 ± 1.79%
Recovery of total radioactivity in feces [21]: 5.3 ± 1.43%
Recovery of total radioactivity in urine [21]: 19.31 ± 7.15%
Recovery of total radioactivity in feces [22]: 0.35 ± 0.14%
Recovery of total radioactivity in urine [22]: 7.49 ± 2.04%
Recovery of total radioactivity in feces [23]: 0.25 ± 0.14%
Recovery of total radioactivity in urine [23]: 2.7 ± 1.89%
Recovery of total radioactivity in feces [24]: 0.05 ± 0.03%
Recovery of total radioactivity in urine [24]: 0.49 ± 0.3%
Total recovery of radioactivity (urine + feces) [12]: 98.56 ± 2.82%
Total radioactive recovery rate (urine and feces) (rats, single i.m. 25 mg/kg b.w., 0–0.5 d): > 59%
Dose excreted (total radioactivity) (rats, single i.m., within 14 days): more than 93%
Recovery of total radioactivity in excreta ([9]; 0–0.5 d, 25 mg/kg): 60.65 ± 13.08%
Recovery of total radioactivity in excreta ([9]; 0–14 d): 93.39 ± 2.28%
Recovery of total radioactivity in excreta ([9]; 0.5–1 d): 15.08 ± 6.87%
Recovery of total radioactivity in excreta ([9]; 1–3 d): 11.91 ± 9.67%
Recovery of total radioactivity in excreta ([9]; 3–7 d): 5.48 ± 1.89%
Recovery of total radioactivity in excreta ([9]; 7–14 d): 0.26 ± 0.13%
Time point of the highest levels of radioactivity in all collected substrates ([2]; pigs, i.m. 7 consecutive days): 12 h
Time point of the highest levels of radioactivity in all collected substrates ([4]; chickens, gavage 7 consecutive days): 6 h
Recovery of total radioactivity in feces ([3]; 0–0.5 d): 5.56 ± 0.42%
Recovery of total radioactivity in urine ([3]; 0–0.5 d): 60.02 ± 16.54%
Total radioactive recovery rate (urine and feces) ([3]; 0–0.5 d): exceeds 65%
Recovery of total radioactivity in feces ([3]; 0–14 d): 14.72 ± 1.31%
Recovery of total radioactivity in feces ([3]; 0.5–1 d): 2.69 ± 3.12%
Recovery of total radioactivity in urine ([3]; 0.5–1 d): 15.3 ± 8.73%
Recovery of total radioactivity in feces ([3]; 1–3 d): 5.19 ± 3.36%
Recovery of total radioactivity in urine ([3]; 1–3 d): 4.52 ± 2.22%
Recovery of total radioactivity in feces ([3]; 3–7 d): 0.82 ± 0.34%
Recovery of total radioactivity in urine ([3]; 3–7 d): 0.59 ± 0.17%
Recovery of total radioactivity in feces ([3]; 7–14 d): 0.45 ± 0.3%
Recovery of total radioactivity in urine ([3]; 7–14 d): 0.16 ± 0.04%
Time point of the highest levels of radioactivity in all collected substrates [10]: 1 h
Compound: [3H]c1cc(N)ccc1S(=O)(=O)Nc1cc(C)on1 [[^3H]-SMZ, 2-[^3H]-sulfamethoxazole]
